Source: ChEMBL document CHEMBL1201862, “PubChem BioAssay data set” (2004)
Activity calls are given as the source filed them.

How the values were obtained:
[1] = test system: Streptococcus sp. 'group A'; assay: growth inhibition of control SK(-) GAS strain, dose response, counter-screen for streptokinase expression inhibitor project, luminescence, kanamycin, BacTiterGlo, confirmation (AID 1900); type: functional, organism-based; settings: Streptococcus sp. 'group A'
Streptokinase A = biological target: T1, Streptokinase A (Streptococcus pyogenes serotype M1, UniProt P10520); assay: S. pyogenes streptokinase expression inhibitors, potency, dose response, plasminogen activation absorbance, OD405 (AID 1914); type: functional, Streptococcus pyogenes M1 GAS;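 further: secreted streptokinase activity via plasminogen activation per viability signal from cell pellet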
T1 sequence (P10520 whole entry): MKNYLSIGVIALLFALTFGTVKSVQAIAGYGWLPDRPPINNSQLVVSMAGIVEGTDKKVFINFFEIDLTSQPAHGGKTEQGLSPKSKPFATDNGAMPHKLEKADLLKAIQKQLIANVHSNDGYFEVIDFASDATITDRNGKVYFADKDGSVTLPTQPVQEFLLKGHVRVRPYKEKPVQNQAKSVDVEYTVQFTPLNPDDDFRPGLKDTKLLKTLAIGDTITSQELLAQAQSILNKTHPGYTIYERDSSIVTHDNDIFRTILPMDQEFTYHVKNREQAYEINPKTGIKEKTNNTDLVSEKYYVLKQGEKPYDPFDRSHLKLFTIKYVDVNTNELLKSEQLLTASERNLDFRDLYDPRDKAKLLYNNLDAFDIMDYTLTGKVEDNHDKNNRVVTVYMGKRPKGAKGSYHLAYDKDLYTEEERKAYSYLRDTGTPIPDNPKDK

Streptococcus = assay: Group A Streptococcus viability loss, dose response, counter-screen for streptokinase expression inhibitor project, luminescence, BacTiterGlo (AID 1915); type: functional, organism-based; settings: Streptococcus;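 further: potency for reduction of bacterial viability or growth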
[2] = biological target: T2, Long-chain-fatty-acid--AMP ligase FadD28 (Mycobacterium tuberculosis, UniProt P9WQ59); assay: Fluorescence polarization aasay to screen for inhibitors that compete for the binding of FadD28 to a bisubstrate Measured in Biochemical System Using Plate Reader - 2147-01_Inhibitor_Dose_CherryPick_Activity.; type: functional, Mycobacterium tuberculosis H37Rv
T2 sequence (P9WQ59 whole entry): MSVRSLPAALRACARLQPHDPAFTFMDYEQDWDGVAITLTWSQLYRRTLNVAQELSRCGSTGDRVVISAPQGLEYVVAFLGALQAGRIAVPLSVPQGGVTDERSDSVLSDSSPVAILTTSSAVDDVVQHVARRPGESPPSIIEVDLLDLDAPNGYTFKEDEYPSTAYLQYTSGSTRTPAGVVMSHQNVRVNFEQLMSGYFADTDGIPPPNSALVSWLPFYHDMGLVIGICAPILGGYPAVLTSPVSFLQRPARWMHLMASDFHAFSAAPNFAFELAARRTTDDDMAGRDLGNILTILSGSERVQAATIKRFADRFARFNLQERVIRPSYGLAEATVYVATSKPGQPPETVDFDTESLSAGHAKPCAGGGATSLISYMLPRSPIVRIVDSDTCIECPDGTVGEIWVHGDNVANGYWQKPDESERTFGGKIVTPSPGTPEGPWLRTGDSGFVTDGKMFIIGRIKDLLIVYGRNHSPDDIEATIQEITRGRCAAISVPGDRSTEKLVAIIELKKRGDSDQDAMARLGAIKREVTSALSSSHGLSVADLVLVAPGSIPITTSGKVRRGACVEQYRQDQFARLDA

[3] = biological target: Disintegrin and metalloproteinase domain-containing protein 17 (Homo sapiens, UniProt P78536); assay: exosite inhibitors of ADAM17, dose response, biochemical (AID 743260)
Chain of Disintegrin and metalloproteinase domain-containing protein 17 (P78536 whole entry, the tested form may be a part): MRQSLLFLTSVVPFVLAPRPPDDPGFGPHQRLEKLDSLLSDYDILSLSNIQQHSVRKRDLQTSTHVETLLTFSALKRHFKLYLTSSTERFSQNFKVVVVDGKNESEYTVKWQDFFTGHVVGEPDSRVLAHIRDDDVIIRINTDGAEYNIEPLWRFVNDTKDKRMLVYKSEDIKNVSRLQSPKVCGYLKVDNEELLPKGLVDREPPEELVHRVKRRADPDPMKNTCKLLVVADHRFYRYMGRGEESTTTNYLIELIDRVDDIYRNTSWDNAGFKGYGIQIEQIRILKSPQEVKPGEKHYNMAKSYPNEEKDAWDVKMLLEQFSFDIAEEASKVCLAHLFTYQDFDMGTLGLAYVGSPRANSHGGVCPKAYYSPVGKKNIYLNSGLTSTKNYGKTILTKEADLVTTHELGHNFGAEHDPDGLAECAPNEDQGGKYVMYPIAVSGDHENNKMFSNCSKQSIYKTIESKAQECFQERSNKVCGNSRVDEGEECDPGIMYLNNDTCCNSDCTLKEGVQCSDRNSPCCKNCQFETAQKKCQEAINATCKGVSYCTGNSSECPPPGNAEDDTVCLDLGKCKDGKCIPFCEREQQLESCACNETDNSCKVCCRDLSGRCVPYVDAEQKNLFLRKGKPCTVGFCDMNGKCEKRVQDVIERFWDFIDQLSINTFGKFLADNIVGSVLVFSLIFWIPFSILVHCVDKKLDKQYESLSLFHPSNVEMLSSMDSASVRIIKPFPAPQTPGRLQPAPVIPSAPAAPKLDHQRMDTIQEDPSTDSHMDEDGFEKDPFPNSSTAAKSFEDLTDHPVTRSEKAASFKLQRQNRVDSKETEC

[4] = ADAM10 protease inhibitors, dose response, selectivity assay for ADAM17 exosite inhibitor project, biochemical, FRET peptide substrate, recombinant human ADAM10 (AID 743259);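 further: ADAM10 enzyme cleaving a FRET peptide substrate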
[5] = biological target: T3, Adenosylmethionine-8-amino-7-oxononanoate aminotransferase (Mycobacterium tuberculosis, UniProt P9WQ81); assay: Mycobacterium tuberculosis BioA enzyme inhibitor Measured in Biochemical System Using Plate Reader - 2163-02_Inhibitor_Dose_CherryPick_Activity.; type: functional, Mycobacterium tuberculosis UT205
T3 sequence (P9WQ81 whole entry): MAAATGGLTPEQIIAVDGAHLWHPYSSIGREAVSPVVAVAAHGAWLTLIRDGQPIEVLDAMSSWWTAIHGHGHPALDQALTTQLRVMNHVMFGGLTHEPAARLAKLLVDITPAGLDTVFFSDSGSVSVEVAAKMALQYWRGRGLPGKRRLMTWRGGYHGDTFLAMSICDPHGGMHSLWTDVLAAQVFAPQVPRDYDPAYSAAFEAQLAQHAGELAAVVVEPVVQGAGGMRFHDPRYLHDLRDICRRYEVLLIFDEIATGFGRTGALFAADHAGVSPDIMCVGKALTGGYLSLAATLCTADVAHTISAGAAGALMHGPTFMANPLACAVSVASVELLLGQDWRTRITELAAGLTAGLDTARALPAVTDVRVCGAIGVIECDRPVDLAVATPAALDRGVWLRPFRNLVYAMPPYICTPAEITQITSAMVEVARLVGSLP

Caspase-6 = biological target: T4, Caspase-6 (Homo sapiens, UniProt P55212); assay: human caspase-6 inhibitors, dose response, biochemical, VEID-R110 fluorescence, cherry-pick (AID 720632)
T4 sequence (P55212 whole entry): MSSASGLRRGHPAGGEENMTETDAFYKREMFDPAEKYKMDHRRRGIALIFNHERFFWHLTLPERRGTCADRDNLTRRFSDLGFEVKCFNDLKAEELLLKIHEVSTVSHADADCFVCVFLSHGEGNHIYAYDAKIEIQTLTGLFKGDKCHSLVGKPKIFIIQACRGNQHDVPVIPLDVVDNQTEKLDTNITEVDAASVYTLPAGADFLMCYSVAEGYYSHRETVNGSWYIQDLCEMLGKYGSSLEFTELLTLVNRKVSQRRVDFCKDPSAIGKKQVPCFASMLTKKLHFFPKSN

[6] = biological target: T5, Oxysterols receptor LXR-beta (Homo sapiens, UniProt P55055); type: functional, cell-based;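 further: agonist activity at LXR measured by a cell-based luminescence readout across a dose range, run as a counterscreen for daf-12 agonists; HEK293 cells with Gal4-LXR fusion and GAL4-driven luciferase reporter; potency for activation of Gal4-LXR reporter so compounds are agonists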
T5 sequence (P55055 whole entry): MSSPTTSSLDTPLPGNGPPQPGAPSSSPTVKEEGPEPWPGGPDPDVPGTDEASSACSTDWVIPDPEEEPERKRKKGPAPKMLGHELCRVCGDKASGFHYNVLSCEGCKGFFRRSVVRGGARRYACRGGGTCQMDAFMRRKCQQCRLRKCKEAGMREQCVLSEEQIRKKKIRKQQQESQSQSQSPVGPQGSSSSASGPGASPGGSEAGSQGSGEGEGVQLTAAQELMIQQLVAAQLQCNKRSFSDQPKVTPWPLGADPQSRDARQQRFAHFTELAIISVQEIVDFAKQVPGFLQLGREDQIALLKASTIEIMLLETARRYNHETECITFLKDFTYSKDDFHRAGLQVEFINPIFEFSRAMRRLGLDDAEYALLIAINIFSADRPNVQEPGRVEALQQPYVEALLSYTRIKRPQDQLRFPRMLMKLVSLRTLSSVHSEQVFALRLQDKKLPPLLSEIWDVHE

cells [7] = type: functional
[8] = AlphaScreen signal interference compounds, dose response, artefact control for ARNT-TACC3 interaction inhibitor project, biochemical, luminescence, cherry-pick (AID 651705); type: functional;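 further: AlphaScreen bead proximity signal that flags compounds interfering with the detection technology; potency reflects signal decrease which marks the compound as an assay artifact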
[9] = biological target: Luciferin 4-monooxygenase (Photinus pyralis, UniProt P08659); assay: firefly luciferase enzyme inhibitors, dose response, biochemical, luminescence (AID 1891)
Chain of Luciferin 4-monooxygenase (P08659 whole entry): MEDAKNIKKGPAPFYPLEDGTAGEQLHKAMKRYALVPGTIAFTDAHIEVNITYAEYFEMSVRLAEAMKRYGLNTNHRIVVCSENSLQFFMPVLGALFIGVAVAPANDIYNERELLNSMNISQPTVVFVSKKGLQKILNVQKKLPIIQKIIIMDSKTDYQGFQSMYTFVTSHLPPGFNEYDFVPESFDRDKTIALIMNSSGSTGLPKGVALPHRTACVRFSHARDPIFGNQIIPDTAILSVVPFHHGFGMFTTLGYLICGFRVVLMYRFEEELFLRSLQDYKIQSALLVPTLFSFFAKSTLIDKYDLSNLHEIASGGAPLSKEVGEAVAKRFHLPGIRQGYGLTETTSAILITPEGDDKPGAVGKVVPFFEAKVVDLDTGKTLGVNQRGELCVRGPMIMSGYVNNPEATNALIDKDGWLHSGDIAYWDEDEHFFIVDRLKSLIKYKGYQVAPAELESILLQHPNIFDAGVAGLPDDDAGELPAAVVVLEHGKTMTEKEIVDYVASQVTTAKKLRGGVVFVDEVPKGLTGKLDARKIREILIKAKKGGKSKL

[10] = Luminescence Cell-Based Dose Confirmation HTS to Identify Inhibitors of Platelet Dense Granule Release. [Related pubchem assays: 1663 (Primary HTS), 1678 (Summary of Project)]; type: functional
cells [11] = type: functional, cell-based
cells [12] = type: functional, cell-based; remark: listed apart in the source
[13] = human group III sPLA2 inhibitors, dose response, biochemical, QFRET, IC50 (AID 743457);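 further: green fluorescence rise as the enzyme cleaves BODIPY PC-A2 in liposomes; potency for inhibition of the enzyme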
[14] = NIH-3T3 fibroblast cytotoxicity, dose response, cytotoxicity control, cell-based, fluorescence, Alamar Blue, secondary assay (AID 2327); type: functional;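 further: NIH-3T3 mouse fibroblasts cultured with fluconazole at 8 µg/mL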
[15] = inhibitors of firefly luciferase expression or activity, dose response, H4 neuroglioma cells, luminescence (AID 1990); type: functional, cell-based
[16] = Luminescence Cell-Based Dose Response HTS to Identify Inhibitors of 5'UTR Stem-Loop Driven Prion Protein mRNA Translation in H4 Neuroglioblastoma Cells. [Related pubchem assays: 1827 (Project Summary), 1813 (Primary HTS)]; type: functional
[17] = inhibitors of SNCA 5'UTR-driven reporter translation, confirmation, H4 neuroglioma cells, luminescence (AID 1988); type: functional, cell-based
[18] = C. albicans growth with fluconazole, confirmation, fluorescence, retest (AID 2467); type: functional, cell-based
[19] = THP-1 cell cytotoxicity, dose response, cytotoxicity control for non-replicating M. tuberculosis project (AID 489025); type: functional
[20] = HepG2 cell cytotoxicity, dose response, cytotoxicity control for non-replicating M. tuberculosis project (AID 489018); type: functional; settings: Mycobacterium tuberculosis
[21] = Vero E6 cell cytotoxicity, dose response, cytotoxicity control for non-replicating M. tuberculosis project, secondary assay (AID 492998); type: functional, VeroE6; settings: Vero C1008
INS1 = assay: beta cell apoptosis inhibitors, cytokine rescue, dose response, luminescence, retest (AID 449756); type: functional, cell-based; settings: Rattus norvegicus;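 further: cell death triggered by IL-1 beta plus TNF-alpha plus IFN-gamma mixture; protective hits raise ATP signal compared with cytokine alone wells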
[22] = A549 cell cytotoxicity, dose response, cytotoxicity control, plate reader, cherry-pick, antagonist series (AID 743412); type: functional, cell-based
[23] = HepG2 cell cytotoxicity, dose response, cytotoxicity control, plate reader, cherry-pick, antagonist series (AID 743416); type: functional, cell-based
[24] = LGR2 antagonists, dose response, cell-based, HEK293, CRE-luciferase reporter, cherry pick, set 2 (AID 743343); type: functional;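 further: transfected cells were stimulated with diluted bursicon conditioned medium after compound addition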
[25] = Luminescence Cell-Based Dose Response to Identify Activators of 5'UTR Stem-Loop Driven Prion Protein mRNA Translation in H4-C Neuroglioblastoma Cells. [Related pubchem assays: 1829 (Project Summary), 1814 (Primary HTS)]; type: functional
[26] = Luminescence Cell-Based Dose Response HTS to Identify Activators of Luciferase Translation or Activity in H4 […] Cells. [Related pubchem assays: 1829 (Project Summary), 1814 (Primary HTS)]; type: functional
[27] = Luminescence Cell-Based Dose Response to Identify Activators of Luciferase Translation or Activity in H4-C Neuroglioblastoma Cells. [Related pubchem assays: 1829 (Project Summary), 1814 (Primary HTS)]; type: functional
[28] = Luminescence Cell-Based Dose Confirmation to Identify Activators of 5'UTR Stem-Loop Driven Alpha-Synuclein mRNA Translation in H4 Neuroglioblastoma Cells. [Related pubchem assays: 1829 (Project Summary), 1814 (Primary HTS)]; type: functional
[29] = HEp-2 cell cytotoxicity, dose response, cytotoxicity control for RSV inhibitor project, HTS (AID 2410); type: functional; settings: human respiratory syncytial virus
[30] = HEK293T cytotoxicity, dose response, cytotoxicity control for miR-122 modulator project, cell-based, activator set, cherry-pick (AID 720690); type: functional;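 further: HEK293T human cells scored for general mammalian cytotoxicity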

CCc1c(O)n(C2CCCCC2)c(SCC(=O)Nc2nc3ccccc3s2)nc1=O
EC50 [1]: 11.8 µM (active)
EC50 (Streptokinase A): 17.1 µM (active)
EC50 (Streptococcus): 122 µM (active)
AC50 [2]: 29 µM (active)

COC(=O)C1=C(c2ccccc2OCc2ccccc2)C[C@@H]2CC[C@H]1N2C(=O)NCc1ccc(Cl)cc1
IC50 [3]: > 69.5 µM (inactive)
IC50 [4]: > 7.72 µM (active)

CC(Oc1ccccc1)C(=O)OCC(=O)N1CC(=O)Nc2ccccc21 (stereo unspecified)
AC50 [2]: > 100 µM (inactive)

O=c1[nH]c(N2CCN(Cc3ccc4c(c3)OCO4)CC2)nc2c1CCC2
AC50 [5]: 0.93 µM (active)

CN(c1ccc(OCC(=O)Nc2cc(Cl)ccc2C(=O)O)cc1)S(=O)(=O)c1ccc(F)cc1
AC50 (Caspase-6): 27.2 µM (active)

O=c1c2ccccc2cnn1-c1ccc2ccccc2c1
EC50 [6]: > 67.5 µM (inactive)

Clc1cccc(-c2ccc(CNCc3ccccn3)o2)c1
IC50 (cells [7]): 3.05 µM (active)
AC50 [8]: 94.4 µM (active)

CCC(NCCc1ccccc1)=C1C(=O)NC(=O)NC1=O
EC50 [9]: > 112 µM (not active)
EC50 [10]: 14.5 µM (active)
IC50 (cells [11]): > 29.9 µM (inactive)
EC50 (cells [12]): > 29.9 µM (inactive)

O=C(NNC(=S)NC1CCCCC1)c1ccccc1Cl
IC50 [13]: > 122 µM (inactive)

CC(C)c1ccc2c(c1)C(N1CCNCC1)Cc1ccc(F)cc1S2 (stereo unspecified)
EC50 [14]: > 150 µM (inactive)
EC50 [15]: > 120 µM (not active)
EC50 [16]: 25.7 µM (active)
EC50 [17]: 11.6 µM (active)
EC50 [18]: > 38 µM (not active)
CC50 [19]: 16.3 µM (active)
CC50 [20]: 18.1 µM (active)
CC50 [21]: 12.3 µM (active)
IC50 (cells [7]): 14.2 µM (active)
AC50 (INS1): 6.71 µM (active)
AC50 [22]: 6.71 µM (active)
AC50 [23]: 7.87 µM (active)
AC50 [24]: 38.2 µM (active)

Cc1ccc(NC(=O)C(OC(=O)c2cc(C)oc2C)c2ccccc2)cc1 (stereo unspecified)
IC50 [3]: > 69.5 µM (inactive)
IC50 [4]: 24.5 µM (inactive)

COc1cc(NC(=O)C/C(C)=N/NC(=O)Cc2ccccc2)c(OC)cc1Cl
IC50 [3]: > 69.5 µM (inactive)
IC50 [4]: > 69.5 µM (inactive)

Cc1cccc(C(=N)NOC(=O)c2cccs2)c1
EC50 [6]: > 67.5 µM (inactive)

CCOC(=O)c1cnc(SCc2ccccc2)nc1N
EC50 [25]: 0.342 µM (active)
EC50 [26]: < 0.1 µM (active)
EC50 [27]: 0.278 µM (active)
EC50 [28]: 0.23 µM (active)
EC50 [6]: > 67.5 µM (inactive)

CC(=O)c1cccc(OCC(O)CNCCc2ccc(Cl)cc2)c1 (stereo unspecified)
IC50 (cells [11]): > 29.9 µM (inactive)
EC50 (cells [12]): > 29.9 µM (inactive)

CN1c2ccc(-c3ccccc3)cc2[C@H]2[C@H](CCN2C(=O)Cc2ccccn2)[C@H]1CO
AC50 [5]: 6.13 µM (active)

COc1ccc2c(c1)C(C)=CC(C)(C)N2C(=O)CNCc1ccc2c(c1)OCO2
CC50 [29]: > 50 µM (active)
AC50 [30]: 40.4 µM (active)

O=C(CSc1nc2cc(C(=O)O)ccc2c(=O)n1-c1ccc(F)cc1)Nc1ccc(F)c(F)c1F
AC50 [5]: 2.65 µM (active)
